Reference: ChEMBL document CHEMBL4828725 (Eur J Med Chem, 2021)

Legend:
Helix pomatia = experiment: Inhibition of snail beta-mannosidase using p-nitrophenyl glycoside as substrate assessed as release of p-nitrophenol at 1000 uM measured by spectrometric assay relative to control
[1] = Inhibition of almond beta-glucosidase using p-nitrophenyl glycoside as substrate assessed as release of p-nitrophenol measured by spectrometric assay; set-up: species or system Prunus dulcis
[2] = Inhibition of rat intestinal maltase using maltose as substrate assessed as release of D-glucose measured by spectrometric assay
Prunus dulcis = experiment: Inhibition of almond beta-glucosidase using p-nitrophenyl glycoside as substrate assessed as release of p-nitrophenol at 1000 uM measured by spectrometric assay relative to control
[3] = Inhibition of bovine liver beta-galactosidase using p-nitrophenyl glycoside as substrate assessed as release of p-nitrophenol measured by spectrometric assay; type: tissue-based, Bos taurus
[4] = target: T1, Sucrase-isomaltase, intestinal (Rattus norvegicus, UniProt P23739); experiment: Inhibition of rat intestinal sucrase using p-nitrophenyl glycoside as substrate assessed as release of p-nitrophenol measured by spectrometric assay; conditions: read-out: IC50
[5] = Inhibition of snail beta-mannosidase using p-nitrophenyl glycoside as substrate assessed as release of p-nitrophenol measured by spectrometric assay; set-up: species or system Helix pomatia
Aspergillus niger = experiment: Inhibition of Aspergillus niger amyloglucosidase using p-nitrophenyl glycoside as substrate assessed as release of p-nitrophenol at 1000 uM measured by spectrometric assay relative to control
[6] = Inhibition of Aspergillus niger amyloglucosidase using p-nitrophenyl glycoside as substrate assessed as release of p-nitrophenol measured by spectrometric assay
[7] = target: T2, Tissue alpha-L-fucosidase (Bos taurus, UniProt Q2KIM0); experiment: Inhibition of bovine kidney alpha-L-fucosidase using p-nitrophenyl glycoside as substrate assessed as release of p-nitrophenol measured by spectrometric assay
T2 sequence (Q2KIM0 whole entry): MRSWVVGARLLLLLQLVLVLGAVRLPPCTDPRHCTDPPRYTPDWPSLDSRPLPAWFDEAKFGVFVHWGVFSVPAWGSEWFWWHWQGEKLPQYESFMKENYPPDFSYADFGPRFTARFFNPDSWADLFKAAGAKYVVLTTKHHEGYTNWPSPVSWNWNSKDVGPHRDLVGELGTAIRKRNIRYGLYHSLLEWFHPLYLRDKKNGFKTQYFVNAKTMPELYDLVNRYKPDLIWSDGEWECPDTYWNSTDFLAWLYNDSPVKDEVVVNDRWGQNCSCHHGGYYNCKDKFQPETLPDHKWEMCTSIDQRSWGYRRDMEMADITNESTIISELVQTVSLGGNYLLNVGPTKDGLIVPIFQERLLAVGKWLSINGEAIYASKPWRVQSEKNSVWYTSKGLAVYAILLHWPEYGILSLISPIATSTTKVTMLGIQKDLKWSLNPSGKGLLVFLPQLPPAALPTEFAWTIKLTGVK

[8] = Inhibition of porcine kidney alpha-trehalase using p-nitrophenyl glycoside as substrate assessed as release of p-nitrophenol measured by spectrometric assay; set-up: species or system Sus scrofa
Sus scrofa = organism: Sus scrofa; experiment: Inhibition of porcine kidney alpha-trehalase using p-nitrophenyl glycoside as substrate assessed as release of p-nitrophenol at 1000 uM measured by spectrometric assay relative to control
Alpha-galactosidase = Alpha-galactosidase (Coffea arabica, UniProt Q42656); experiment: Inhibition of coffee beans alpha-galactosidase using p-nitrophenyl glycoside as substrate assessed as release of p-nitrophenol measured by spectrometric assay
[9] = target: T3, Tissue alpha-L-fucosidase (Bos taurus) (UniProt Q2KIM0); experiment: Inhibition of bovine kidney alpha-L-fucosidase using p-nitrophenyl glycoside as substrate assessed as release of p-nitrophenol at 1000 uM measured by spectrometric assay relative to control; type: tissue-based
T3 sequence (whole entry): T2 sequence (Q2KIM0 whole entry)

[10] = target: T1, Sucrase-isomaltase, intestinal; experiment: Inhibition of rat intestinal isomaltase using p-nitrophenyl glycoside as substrate assessed as release of p-nitrophenol measured by spectrometric assay
Beta-glucuronidase = Beta-glucuronidase (Escherichia coli (strain K12), UniProt P05804); experiment: Inhibition of Escherichia coli beta-glucuronidase using p-nitrophenyl glycoside as substrate assessed as release of p-nitrophenol measured by spectrometric assay
[11] = target: Alpha-galactosidase (Coffea arabica) (UniProt Q42656); experiment: Inhibition of coffee beans alpha-galactosidase using p-nitrophenyl glycoside as substrate assessed as release of p-nitrophenol at 1000 uM measured by spectrometric assay relative to control
[12] = Inhibition of Penicillium decumbens alpha-L-rhamnosidase using p-nitrophenyl glycoside as substrate assessed as release of p-nitrophenol measured by spectrometric assay
[13] = Inhibition of rice alpha-glucosidase using p-nitrophenyl glycoside as substrate assessed as release of p-nitrophenol measured by spectrometric assay; set-up: species or system Oryza sativa; conditions: read-out: IC50
[14] = target: T4, Alpha-mannosidase (Canavalia ensiformis) (UniProt C0HJB3); experiment: Inhibition of jack bean alpha-mannosidase using p-nitrophenyl glycoside as substrate assessed as release of p-nitrophenol at 1000 uM measured by spectrometric assay relative to control
T4 sequence (whole entry): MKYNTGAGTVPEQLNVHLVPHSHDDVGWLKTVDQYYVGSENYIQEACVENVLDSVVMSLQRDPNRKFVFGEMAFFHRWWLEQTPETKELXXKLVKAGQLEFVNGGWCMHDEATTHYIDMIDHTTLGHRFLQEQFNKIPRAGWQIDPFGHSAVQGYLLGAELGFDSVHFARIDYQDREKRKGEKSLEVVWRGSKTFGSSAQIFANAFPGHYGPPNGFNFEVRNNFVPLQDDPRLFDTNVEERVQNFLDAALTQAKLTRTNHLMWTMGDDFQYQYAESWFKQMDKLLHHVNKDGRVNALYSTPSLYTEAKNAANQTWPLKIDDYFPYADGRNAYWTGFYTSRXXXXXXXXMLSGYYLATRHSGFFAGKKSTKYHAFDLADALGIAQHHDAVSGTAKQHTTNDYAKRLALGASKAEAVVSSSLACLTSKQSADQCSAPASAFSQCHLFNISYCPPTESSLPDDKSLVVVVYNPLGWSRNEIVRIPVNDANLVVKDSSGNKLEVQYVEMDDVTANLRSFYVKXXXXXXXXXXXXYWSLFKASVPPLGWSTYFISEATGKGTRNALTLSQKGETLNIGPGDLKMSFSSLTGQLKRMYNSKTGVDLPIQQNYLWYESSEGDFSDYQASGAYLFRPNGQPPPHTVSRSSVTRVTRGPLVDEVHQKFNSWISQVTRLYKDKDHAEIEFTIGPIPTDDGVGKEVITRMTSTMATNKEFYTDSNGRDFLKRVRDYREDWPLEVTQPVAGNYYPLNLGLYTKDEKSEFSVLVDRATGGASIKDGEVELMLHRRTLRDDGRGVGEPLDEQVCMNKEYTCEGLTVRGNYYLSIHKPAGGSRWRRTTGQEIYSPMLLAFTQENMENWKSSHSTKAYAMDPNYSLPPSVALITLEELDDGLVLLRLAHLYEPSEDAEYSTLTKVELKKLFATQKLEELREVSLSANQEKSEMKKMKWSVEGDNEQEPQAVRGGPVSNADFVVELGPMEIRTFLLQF

Penicillium decumbens = experiment: Inhibition of Penicillium decumbens alpha-L-rhamnosidase using p-nitrophenyl glycoside as substrate assessed as release of p-nitrophenol at 1000 uM measured by spectrometric assay relative to control
[15] = Inhibition of bovine liver beta-glucosidase using p-nitrophenyl glycoside as substrate assessed as release of p-nitrophenol measured by spectrometric assay; set-up: species or system Bos taurus
[16] = Inhibition of jack bean alpha-mannosidase using p-nitrophenyl glycoside as substrate assessed as release of p-nitrophenol measured by spectrometric assay; set-up: species or system Canavalia ensiformis
Bos taurus [17] = organism: Bos taurus; experiment: Inhibition of bovine liver beta-glucosidase using p-nitrophenyl glycoside as substrate assessed as release of p-nitrophenol at 1000 uM measured by spectrometric assay relative to control; type: tissue-based
Bos taurus [18] = organism: Bos taurus; experiment: Inhibition of bovine liver beta-galactosidase using p-nitrophenyl glycoside as substrate assessed as release of p-nitrophenol at 1000 uM measured by spectrometric assay relative to control
[19] = target: Beta-glucuronidase (Escherichia coli (strain K12)) (UniProt P05804); experiment: Inhibition of Escherichia coli beta-glucuronidase using p-nitrophenyl glycoside as substrate assessed as release of p-nitrophenol at 1000 uM measured by spectrometric assay relative to control
Sequence of Beta-glucuronidase (Escherichia coli (strain K12)) (P05804 whole entry, looked up): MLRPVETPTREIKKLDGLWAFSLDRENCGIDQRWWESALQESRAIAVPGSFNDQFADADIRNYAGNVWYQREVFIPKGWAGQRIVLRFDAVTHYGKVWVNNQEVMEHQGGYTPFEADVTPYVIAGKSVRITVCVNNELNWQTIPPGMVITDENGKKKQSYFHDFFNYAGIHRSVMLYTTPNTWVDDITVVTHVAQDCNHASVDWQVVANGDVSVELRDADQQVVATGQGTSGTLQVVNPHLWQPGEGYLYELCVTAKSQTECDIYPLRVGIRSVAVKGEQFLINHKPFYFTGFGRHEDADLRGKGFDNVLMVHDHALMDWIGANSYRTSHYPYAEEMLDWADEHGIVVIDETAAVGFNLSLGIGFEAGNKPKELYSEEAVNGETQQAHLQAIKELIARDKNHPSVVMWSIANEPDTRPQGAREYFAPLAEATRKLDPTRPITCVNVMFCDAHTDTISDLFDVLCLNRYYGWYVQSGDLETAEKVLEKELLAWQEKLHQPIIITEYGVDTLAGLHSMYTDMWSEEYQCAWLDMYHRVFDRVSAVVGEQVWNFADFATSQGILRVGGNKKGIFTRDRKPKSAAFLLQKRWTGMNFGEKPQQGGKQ

Sequence of Alpha-galactosidase (Q42656 whole entry): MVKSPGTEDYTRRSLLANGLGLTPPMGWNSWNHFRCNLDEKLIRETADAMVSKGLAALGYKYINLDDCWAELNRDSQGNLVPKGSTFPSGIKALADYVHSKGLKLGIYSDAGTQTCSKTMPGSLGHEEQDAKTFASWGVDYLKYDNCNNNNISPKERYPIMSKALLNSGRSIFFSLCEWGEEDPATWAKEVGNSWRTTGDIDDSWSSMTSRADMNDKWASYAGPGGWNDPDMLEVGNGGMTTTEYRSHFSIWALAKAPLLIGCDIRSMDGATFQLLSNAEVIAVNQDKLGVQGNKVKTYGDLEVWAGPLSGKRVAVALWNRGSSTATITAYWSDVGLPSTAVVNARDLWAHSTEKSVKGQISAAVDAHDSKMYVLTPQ
Sequence of Beta-glucuronidase (P05804 whole entry): as the sequence (P05804 whole entry, looked up) above
Sequence of Alpha-galactosidase (Coffea arabica) (Q42656 16-378 limits assumed): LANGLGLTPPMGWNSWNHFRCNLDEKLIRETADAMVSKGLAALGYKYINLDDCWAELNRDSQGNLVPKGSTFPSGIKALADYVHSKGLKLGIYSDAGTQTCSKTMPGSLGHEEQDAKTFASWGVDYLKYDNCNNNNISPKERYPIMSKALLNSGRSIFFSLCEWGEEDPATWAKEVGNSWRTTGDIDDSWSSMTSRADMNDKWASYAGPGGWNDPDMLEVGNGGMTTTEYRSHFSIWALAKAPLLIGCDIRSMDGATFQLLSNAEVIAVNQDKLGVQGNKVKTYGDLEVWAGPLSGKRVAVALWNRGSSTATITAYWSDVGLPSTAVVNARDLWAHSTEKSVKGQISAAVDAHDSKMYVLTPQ
T1 sequence (P23739 1-1013 limits assumed): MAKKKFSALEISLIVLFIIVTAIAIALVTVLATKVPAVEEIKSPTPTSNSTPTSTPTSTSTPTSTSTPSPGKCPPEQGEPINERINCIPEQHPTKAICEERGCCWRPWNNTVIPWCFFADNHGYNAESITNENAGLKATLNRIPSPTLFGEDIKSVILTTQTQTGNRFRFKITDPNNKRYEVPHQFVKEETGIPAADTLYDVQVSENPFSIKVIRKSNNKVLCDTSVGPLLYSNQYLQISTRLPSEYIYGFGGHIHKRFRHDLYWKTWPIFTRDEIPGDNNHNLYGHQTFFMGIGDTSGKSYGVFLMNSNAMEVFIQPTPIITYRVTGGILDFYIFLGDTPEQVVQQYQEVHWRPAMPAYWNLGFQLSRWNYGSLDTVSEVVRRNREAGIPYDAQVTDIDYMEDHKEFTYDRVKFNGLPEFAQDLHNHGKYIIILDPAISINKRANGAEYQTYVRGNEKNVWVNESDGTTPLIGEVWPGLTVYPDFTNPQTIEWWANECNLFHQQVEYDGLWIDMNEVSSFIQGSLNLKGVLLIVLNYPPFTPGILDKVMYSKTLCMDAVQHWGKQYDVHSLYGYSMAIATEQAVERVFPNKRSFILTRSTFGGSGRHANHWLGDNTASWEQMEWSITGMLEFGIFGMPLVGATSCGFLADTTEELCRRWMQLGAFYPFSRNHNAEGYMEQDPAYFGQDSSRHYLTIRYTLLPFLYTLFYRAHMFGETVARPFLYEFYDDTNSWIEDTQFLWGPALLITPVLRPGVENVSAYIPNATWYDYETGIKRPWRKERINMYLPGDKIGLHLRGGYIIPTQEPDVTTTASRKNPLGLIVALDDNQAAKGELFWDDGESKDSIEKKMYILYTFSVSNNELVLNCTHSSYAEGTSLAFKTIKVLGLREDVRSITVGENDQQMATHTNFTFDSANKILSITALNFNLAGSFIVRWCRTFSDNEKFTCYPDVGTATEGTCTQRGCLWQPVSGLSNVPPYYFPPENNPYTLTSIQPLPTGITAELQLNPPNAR
T1 sequence (P23739 1014-1841 limits assumed): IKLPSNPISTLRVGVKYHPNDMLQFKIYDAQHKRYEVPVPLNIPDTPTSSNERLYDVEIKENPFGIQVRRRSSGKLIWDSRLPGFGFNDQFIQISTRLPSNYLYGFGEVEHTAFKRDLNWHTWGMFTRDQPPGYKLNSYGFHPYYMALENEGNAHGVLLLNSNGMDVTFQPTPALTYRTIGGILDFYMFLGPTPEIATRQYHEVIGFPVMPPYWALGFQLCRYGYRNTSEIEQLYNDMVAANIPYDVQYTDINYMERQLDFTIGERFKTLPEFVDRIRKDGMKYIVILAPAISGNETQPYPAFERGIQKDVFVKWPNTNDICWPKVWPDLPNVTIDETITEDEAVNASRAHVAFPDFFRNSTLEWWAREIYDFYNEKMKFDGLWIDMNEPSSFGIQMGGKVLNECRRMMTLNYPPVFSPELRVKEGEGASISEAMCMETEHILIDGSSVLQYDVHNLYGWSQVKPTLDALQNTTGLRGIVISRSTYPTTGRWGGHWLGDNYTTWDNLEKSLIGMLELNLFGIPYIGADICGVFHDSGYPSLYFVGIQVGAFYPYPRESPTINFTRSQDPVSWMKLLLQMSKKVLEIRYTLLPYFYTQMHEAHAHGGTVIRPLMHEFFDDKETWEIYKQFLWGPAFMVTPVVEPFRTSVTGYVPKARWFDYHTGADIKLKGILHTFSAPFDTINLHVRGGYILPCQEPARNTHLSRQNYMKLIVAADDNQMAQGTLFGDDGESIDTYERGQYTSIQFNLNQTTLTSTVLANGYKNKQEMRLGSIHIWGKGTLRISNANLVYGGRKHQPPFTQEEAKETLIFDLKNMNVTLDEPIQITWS

| Compound | inhibition (Helix pomatia) | IC50 [1] | IC50 [2] | inhibition (Prunus dulcis) | IC50 [4] | IC50 [5] | inhibition (Aspergillus niger) | IC50 [6] | IC50 [7] | IC50 [8] | inhibition (Sus scrofa) | inhibition [9] | IC50 (Beta-glucuronidase) | IC50 [12] | IC50 [13] | inhibition [14] | inhibition (Penicillium decumbens) | IC50 [16] | IC50 ([10]; read-out: IC50) | inhibition [19] | other results |
| --- | --- | --- | --- | --- | --- | --- | --- | --- | --- | --- | --- | --- | --- | --- | --- | --- | --- | --- | --- | --- | --- |
| CCCC[C@@]1(CO)NC[C@H](O)[C@@H](O)[C@@H]1O.Cl | 3% | Not Active | 110 µM | 6.2% | 242 µM | Not Active | 3.8% | Not Active | Not Active | Not Active | 0% | 16% | Not Active | Not Active | 85 µM | 4.4% | 22.8% | Not Active |  |  | IC50 ([3]; read-out: IC50): 52 µM; IC50 (Alpha-galactosidase): Not Active; IC50 [10]: Not Active; inhibition [11]: 12.5%; IC50 ([15]; read-out: IC50): 149 µM |
| CCCCCC[C@]1(CO)NC[C@H](O)[C@@H](O)[C@@H]1O.Cl | 0% | Not Active | 0.034 µM | 11.3% | 0.14 µM | Not Active | 5.4% | Not Active | Not Active | Not Active | 11.7% | 4.3% | Not Active | Not Active | 0.037 µM | 5.5% | 0.6% | Not Active | 0.55 µM | 21.1% | IC50 [3]: Not Active; inhibition (Bos taurus [17]): 10.8%; inhibition (Bos taurus [18]): 15.5%; IC50 (Alpha-galactosidase; read-out: IC50): 76 µM; IC50 [15]: Not Active |
| CCCCCCCC[C@]1(CO)NC[C@H](O)[C@@H](O)[C@@H]1O.Cl | 0.5% | Not Active | 0.019 µM | 15.7% | 0.12 µM | Not Active | 5.9% | Not Active | Not Active | Not Active | 23% | 6.6% | Not Active | Not Active | 0.029 µM | 4.6% | 5.7% | Not Active | 0.34 µM | 12% | IC50 [3]: Not Active; inhibition (Bos taurus [17]): 14.3%; inhibition (Bos taurus [18]): 35.2%; IC50 (Alpha-galactosidase; read-out: IC50): 98 µM; IC50 [15]: Not Active |
| CC[C@]1(CO)NC[C@H](O)[C@@H](O)[C@@H]1O.Cl | 1.1% | Not Active | 0.11 µM | 5.6% | 0.1 µM | Not Active | 0% | Not Active | Not Active |  |  | 2.1% | Not Active | Not Active | 0.097 µM | 1.6% | 0% | Not Active | 1.2 µM | 3.6% | IC50 [3]: Not Active; inhibition (Bos taurus [17]): 15.3%; inhibition (Bos taurus [18]): 18.4%; IC50 ([8]; read-out: IC50): 94 µM; IC50 (Alpha-galactosidase): Not Active; inhibition [11]: 30.1%; IC50 [15]: Not Active |

Second part, led by results:

| inhibition (Helix pomatia) | IC50 [1] | IC50 [2] | inhibition (Prunus dulcis) | IC50 [4] | IC50 [5] | inhibition (Aspergillus niger) | IC50 [6] | IC50 [7] | IC50 [8] | inhibition (Sus scrofa) | inhibition [9] | IC50 (Beta-glucuronidase) | IC50 [12] | IC50 [13] | inhibition [14] | inhibition (Penicillium decumbens) | IC50 [16] | IC50 ([10]; read-out: IC50) | inhibition [19] | Compound | other results |
| --- | --- | --- | --- | --- | --- | --- | --- | --- | --- | --- | --- | --- | --- | --- | --- | --- | --- | --- | --- | --- | --- |
| 0.6% | Not Active | 9.5 µM | 32.9% | 42 µM | Not Active | 2.7% | Not Active | Not Active | Not Active | 0% | 1.5% | Not Active | Not Active | 3.3 µM | 0% | 3.5% | Not Active | 122 µM | 38.1% | CCCCCCCCC[C@@]1(CO)NC[C@H](O)[C@@H](O)[C@@H]1O.Cl | IC50 ([3]; read-out: IC50): 29 µM; IC50 (Alpha-galactosidase): Not Active; inhibition [11]: 15.3%; IC50 ([15]; read-out: IC50): 213 µM |
| 1.5% | Not Active | 0.07 µM | 10% | 1.2 µM | Not Active | 10.7% | Not Active | Not Active | Not Active | 4.8% | 16% | Not Active | Not Active | 0.024 µM | 7.9% | 0.3% | Not Active | 7.8 µM | 16.5% | CCCCCCCCCCCC[C@]1(CO)NC[C@H](O)[C@@H](O)[C@@H]1O.Cl | IC50 [3]: Not Active; inhibition (Bos taurus [17]): 25%; inhibition (Bos taurus [18]): 48.4%; IC50 (Alpha-galactosidase; read-out: IC50): 10 µM; IC50 [15]: Not Active |
